According to US7745417B2, “Nucleosides or nucleotides having novel unnatural bases and use thereof” (RIKEN, priority 2002, dated 2010):

Experiments:
[1] = molecular target: T1, T7 RNA polymerase (Escherichia phage T7, UniProt P00573); settings: 0.25 mM triphosphate; product of 100 nucleotides
Description: (§1) The reaction composition of T7 transcription may be the same as described in Ohtsuki et al., 2001. Details are as follows: 40 mM Tris-HCl (pH 8.0), 5 mM DTT, 24 mM MgCl2, 2 mM spermidine, 0.01% TritonX-100, 10 mM GMP, 1 mM NTPs, 0-0.25 mM 5IyTP, 0.2 μl/μl template DNA, and 2.5 U/μl T7 RNA polymerase (TaKaRa). After enzymatic reaction at 37° C. for 6 hours, each reaction product was purified by electrophoresis on an 8% polyacrylamide-7M urea gel.

[2] = molecular target: T1, T7 RNA polymerase; settings: T7 transcription
Description: as §1
When T7 transcription reaction is performed in the presence of [α-^32P]ATP or [α-^32P]GTP, a nucleoside 3′-phosphate (Np) 5′-terminal to A or G is labeled with ^32P. Each gel-purified RNA was completely digested into Np by RNase T2 (Sigma). If 5Iy is introduced at residue 84 or 92, the nucleoside 3′-phosphate of 5Iy (5IyTp) is labeled with ^32P via [α-^32P]GTP, while if 5Iy is introduced at residue 87, 5IyTp is labeled via [α-^32P]ATP (FIG. 5, FIG. 6-b). For base composition analysis of 5Iy-containing RNAs, each of the completely digested products was separated by 2D-TLC and determined for each nucleotide content.
More specifically, to completely digest RNA, 0.75 μl RNase T2 solution (5 units/μl; 100 mM NaOAc pH 4.5, 10% glycerol) was added to 4.25 μl aqueous solution containing the labeled RNA and a 0.25 OD E. coli-derived tRNA mixture (Sigma), followed by overnight enzymatic reaction at 37° C. A part of the reaction solution was spotted onto a 10 cm×10 cm TLC plate (Funacell SF; Funakoshi Co., Ltd., Japan) and developed in two dimensions. Developing solutions for the first and second dimensions are isobutyric acid/ammonia/water (66:1:33 by volume) and 2-propanol/hydrochloric acid/water (70:15:15 by volume), respectively. The developed spots were detected and quantified using a bioimaging analyzer (BAS2500, Fuji Photo Film Co., Ltd., Japan).
Each value was calculated from the following equation. The theoretical numbers of nucleotides are in parentheses.

[3] = molecular target: T1, T7 RNA polymerase; settings: for incorporation into RNA opposite s in the template: 1 mM, in competition with natural NTPs; for efficiency of transcription reaction: full-length 17-mer RNA, transcription using natural base pairing set to 100%; for misincorporation opposite natural nucleotides in the template: s-free control template
Description: The T7 transcription reaction was performed on 20 μl scale. The composition of T7 transcription is as follows: 40 mM Tris-HCl (pH 8.0), 5 mM DTT, 8 mM MgCl2, 2 mM spermidine, 0.01% TritonX-100, 10 mM GMP, 1 mM NTPs (N=A, G, C, U, Bio-yTP, Bio^2-yTP), 2 μCi [α-^32P]ATP, 0.5 μM double-stranded DNA, and 2.5 U/μl T7 RNA polymerase (TaKaRa) [Ohtsuki et al., 2001]. After enzymatic reaction at 37° C. for 3 hours, each reaction solution was supplemented with an equal volume of a 10M urea-containing TPE solution and warmed at 75° C. for 3 minutes to stop the reaction. Aliquot parts of the reaction solutions were then electrophoresed on a 20% polyacrylamide-7M urea gel and the [α-^32P]ATP-labeled reaction products were analyzed with a bioimaging analyzer (BAS2500, Fuji Photo Film Co., Ltd., Japan).

[4] = molecular target: T2, Raf-1 RBD (GST-RBD) (Homo sapiens, UniProt P04049 P04049:51-131); test: EMSA; binding to 2 GST-RBD lower than XL; settings: tags: GST fusion, expressed in E. coli; 2 per XL dimer), stated; label: 32P 5'-end
Description: (§2) The product (XL) obtained by crosslinking reaction an equal concentration (0.1 µM) mixture of 9A(5Iy87) and Raf-1 RBD was purified from a gel and analyzed for binding between XL and GSTRBD by gel shift assay. As a control of RNA 9A dimer, RNA 9A molecules were also linked in tandem to newly prepare RNA 9A×2 (200 nucleotides in total length), followed by gel shift assay. RNA 9A×2 is an RNA molecule of 200 nucleotides in total length that has two essential regions of RNA 9A (residues 1-80) in its molecule. It was prepared by transcription reaction using T7 RNA polymerase (Epicentre) and subcloned into vector pCR®II-TOPO (Invitrogen).
(§3) Electrophoresis was performed at room temperature and at a constant voltage (150 V) for about 2 hours (gel size: 16 cm×16 cm×1 mm). The composition of electrophoresis buffer is as follows: 12.5 mM Tris and 125 mM Glycine. Each electrophoresed gel was dried using a gel dryer and analyzed with a bioimaging analyzer (BAS2500, Fuji Photo Film Co., Ltd., Japan).

[5] = molecular target: T2, Raf-1 RBD (GST-RBD); test: EMSA; no shift even at increased GST-RBD; settings: tags: GST fusion, expressed in E. coli; 2 per XL dimer), stated; label: 32P 5'-end
[6] = molecular target: B-Raf RBD (GST-RBD) (Homo sapiens, UniProt P15056 P15056:149-226); test: filter; 2 nM RNA; binds B-Raf RBD but does not inhibit B-Raf RBD/Ras interaction; settings: tags: GST fusion, expressed in E. coli; label: 32P 5'-end; pseudoknot (estimated)
Sequence of B-Raf RBD (GST-RBD) (P15056 149-226, one chain of several): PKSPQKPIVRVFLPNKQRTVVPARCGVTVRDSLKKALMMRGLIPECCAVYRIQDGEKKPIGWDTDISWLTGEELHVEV
Description: The binding efficiency (Binding %) to various concentrations of protein was determined for each RNA aptamer (2 nM) by a filter binding method and plotted in the figure.

[7] = molecular target: T2, Raf-1 RBD (GST-RBD); test: EMSA; 1 XL binds 2 GST-RBD; higher activity than 9Ax2; settings: tags: GST fusion, expressed in E. coli; 2 per XL dimer), stated; label: 32P 5'-end
Description: as §2, §3

T1 sequence (P00573 whole entry): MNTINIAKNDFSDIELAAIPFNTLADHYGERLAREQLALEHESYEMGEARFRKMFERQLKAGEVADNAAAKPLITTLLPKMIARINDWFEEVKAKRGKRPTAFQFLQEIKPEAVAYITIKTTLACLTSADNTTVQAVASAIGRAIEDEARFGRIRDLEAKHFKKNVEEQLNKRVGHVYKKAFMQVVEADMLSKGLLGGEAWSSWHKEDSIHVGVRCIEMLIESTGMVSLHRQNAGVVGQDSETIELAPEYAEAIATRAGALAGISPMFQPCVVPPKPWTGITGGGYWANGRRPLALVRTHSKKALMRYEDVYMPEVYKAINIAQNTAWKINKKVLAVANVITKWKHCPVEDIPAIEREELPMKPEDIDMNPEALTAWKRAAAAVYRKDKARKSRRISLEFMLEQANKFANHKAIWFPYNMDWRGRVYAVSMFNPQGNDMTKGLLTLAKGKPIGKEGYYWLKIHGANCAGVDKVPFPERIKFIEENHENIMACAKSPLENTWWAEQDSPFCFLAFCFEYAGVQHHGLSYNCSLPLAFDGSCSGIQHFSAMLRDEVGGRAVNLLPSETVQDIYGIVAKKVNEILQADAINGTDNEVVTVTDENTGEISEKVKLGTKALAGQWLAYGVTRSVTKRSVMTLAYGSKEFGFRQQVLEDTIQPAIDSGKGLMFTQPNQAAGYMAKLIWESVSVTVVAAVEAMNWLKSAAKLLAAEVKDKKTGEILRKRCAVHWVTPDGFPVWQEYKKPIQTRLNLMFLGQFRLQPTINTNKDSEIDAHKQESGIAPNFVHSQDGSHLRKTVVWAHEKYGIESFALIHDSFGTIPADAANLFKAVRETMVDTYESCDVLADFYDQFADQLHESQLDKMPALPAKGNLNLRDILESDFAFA

Molecule: O=c1[nH]cc(C#Cc2ccccc2)cc1[C@@H]1O[C@H](COP(=O)(O)OP(=O)(O)OP(=O)(O)O)[C@@H](O)[C@H]1O [3-(β-D-ribofuranosyl)-5-(2-phenylethynyl)-pyridin-2(1H)-one 5′-triphosphate]
- progress of transcription reaction with the unnatural triphosphate [1]: confirmed to proceed

Molecule: O=c1[nH]cc(I)cc1[C@@H]1O[C@H](COP(=O)(O)OP(=O)(O)OP(=O)(O)O)[C@@H](O)[C@H]1O [5IyTP, 3-(β-D-ribofuranosyl)-5-iodopyridin-2(1H)-one 5′-triphosphate]
- misincorporated 5Iy, share of the total [2]: less than 0.5%
- selectivity of incorporation opposite s in the template ([2]; s-containing template): ≥ 97%
- progress of transcription reaction with the unnatural triphosphate [1]: proceeded efficiently

Molecule: Biotinylated 5-(3-amino-1-propenyl)-3-(β-D -ribofuranosyl)-2-pyridone 5′-triphosphate [Bio-yTP]
- incorporation into RNA opposite s in the template [3]: competitively and selectively incorporated opposite s in the template
- efficiency of transcription reaction [3]: about 50%
- misincorporation opposite natural nucleotides in the template [3]: almost no misincorporation

Molecule: Biotinylated 5-(3-amino-1-propynyl)-3-(β-D-ribofuranosyl)-2-pyridone 5′-triphosphate [Bio^2-yTP]
- incorporation into RNA opposite s in the template [3]: competitively and selectively incorporated opposite s in the template
- efficiency of transcription reaction [3]: about 50%
- misincorporation opposite natural nucleotides in the template [3]: no misincorporation

B1: RNA 9Ax2 (tandem 9A, 200 nt) (ssRNA)
RNA: GGGAGUGGAGGAAUUCAUCGAGGCAUAUGUCGACUCCGUCUUCCUUCAAACCAGUUAUAAAUUGGUUUUAGCAUAUGCCUUAGCGACAGCAAGCUUCUGCGGGAGUGGAGGAAUUCAUCGAGGCAUAUGUCGACUCCGUCUUCCUUCAAACCAGUUAUAAAUUGGUUUUAGCAUAUGCCUUAGCGACAGCAAGCUUCUGC
- binding result [4]: binds

B2: RNA OC (ssRNA)
RNA: GGGAGUGGAGGAAUUCAUCGAGGCAUCUGGGAACCCUAUCUUGCUUUUGGUAGCUGUAUUCACCUGUAACAGCAUAUGCCUUAGCGACAGCAAGCUUCUGC
- binding result [5]: no binding

B3: RNA 9A (ssRNA)
RNA: GGGAGUGGAGGAAUUCAUCGAGGCAUAUGUCGACUCCGUCUUCCUUCAAACCAGUUAUAAAUUGGUUUUAGCAUAUGCCUUAGCGACAGCAAGCUUCUGC
- binding result [6]: binds

B4: RNA XL (UV-crosslinked dimer of 9A(5Iy87)) (ssRNA)
RNA 1: B3 RNA
RNA 2: B3 RNA
modifications: 5Iy at position 87, UV-crosslinked dimer
- binding result [7]: binds
